The results in this text go back to US11370798B2 (Vertex Pharmaceuticals Incorporated, priority 2012, dated 2022).

This assay relates to HCT116 colorectal cancer cells. Put plainly: Cisplatin sensitization assay (96 h cell viability MTS).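 Note: Test-compound concentration that lowers the Cisplatin IC50 by a set fold.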 The format is cell-based. The note with it: compound and Cisplatin added simultaneously, Cisplatin sensitization value. Put shortly: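 Viability read by MTS (1 h at 37° C) after 96 h co-exposure at 37° C, 5% CO2. Test compound and cisplatin were dosed simultaneously in a full concentration matrix, each 2-fold serially diluted from 10 μM final; sensitization values binned in μM.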
`CN(C)CCN1CCN(c2ccncc2NC(=O)c2c(N)nn3cc(Cl)cnc23)CC1` [I-N-49, 2-amino-6-chloro-N-(4-(4-(2-(dimethylamino)ethyl)piperazin-1-yl)pyridin-3-yl)pyrazolo[1,5-a]pyrimidine-3-carboxamide]: the “Cisplatin Sensitization Assay” value is listed as “+++ (Cisplatin sensitization value of <0.02 μM)”. The value for `CN1CC[C@@H](Oc2ccncc2NC(=O)c2c(N)nn3cc(Cl)cnc23)C1` [I-O-63, (R)-2-amino-6-chloro-N-(4-((1-methylpyrrolidin-3-yl)oxy)pyridin-3-yl)pyrazolo[1,5-a]pyrimidine-3-carboxamide] was “++ (Cisplatin sensitization value>0.02 μM but <0.2 μM)”.

Turning to `Nc1nn2cc(F)cnc2c1C(=O)Nc1cnccc1N1CCC(N2CCCC2=O)CC1` [I-N-230, 2-amino-6-fluoro-N-(4-(4-(2-oxopyrrolidin-1-yl)piperidin-1-yl)pyridin-3-yl)pyrazolo[1,5-a]pyrimidine-3-carboxamide], the “Cisplatin Sensitization Assay” value is recorded as “+++ (Cisplatin sensitization value of <0.02 μM)”.

As for `Nc1nn2cc(F)cnc2c1C(=O)Nc1cnccc1-c1ccc(C(=O)N2CCN(C3COC3)CC2)nc1` [I-C-52, 2-amino-6-fluoro-N-(6-(4-(oxetan-3-yl)piperazine-1-carbonyl)-[3,4′-bipyridin]-3′-yl)pyrazolo[1,5-a]pyrimidine-3-carboxamide], the “Cisplatin Sensitization Assay” value was “++ (Cisplatin sensitization value>0.02 μM but <0.2 μM)”. Under `Nc1nn2cc(Cl)cnc2c1C(=O)Nc1cnccc1N1CCN(C2CC2)CC1` [I-N-64, 2-amino-6-chloro-N-(4-(4-cyclopropylpiperazin-1-yl)pyridin-3-yl)pyrazolo[1,5-a]pyrimidine-3-carboxamide] stands “+++ (Cisplatin sensitization value of <0.02 μM)”; under `Nc1nn2cc(F)cnc2c1C(=O)Nc1cnccc1-c1ccc(C(=O)N2CCN3CCC2CC3)cc1` [I-C-48, N-(4-(4-(1,4-diazabicyclo[3.2.2]nonane-4-carbonyl)phenyl)pyridin-3-yl)-2-amino-6-fluoropyrazolo[1,5-a]pyrimidine-3-carboxamide], “+++ (Cisplatin sensitization value of <0.02 μM)”; under `Nc1nn2cc(F)cnc2c1C(=O)Nc1cncc(F)c1OC1CCN(C2COC2)CC1` [I-O-91, 2-amino-6-fluoro-N-(5-fluoro-4-((1-(oxetan-3-yl)piperidin-4-yl)oxy)pyridin-3-yl)pyrazolo[1,5-a]pyrimidine-3-carboxamide], “++ (Cisplatin sensitization value>0.02 μM but <0.2 μM)”.

Take `N#CCc1cnc2c(C(=O)Nc3cnccc3N3CCC(O)CC3)c(N)nn2c1` [I-N-83, 2-amino-6-(cyanomethyl)-N-(4-(4-hydroxypiperidin-1-yl)pyridin-3-yl)pyrazolo[1,5-a]pyrimidine-3-carboxamide]: the “Cisplatin Sensitization Assay” value is given as “++ (Cisplatin sensitization value>0.02 μM but <0.2 μM)”. The value for `Cc1ncc(-c2ccncc2NC(=O)c2c(N)nn3cc(F)cnc23)n1C` [I-C-77, 2-amino-N-(4-(1,2-dimethyl-1H-imidazol-5-yl)pyridin-3-yl)-6-fluoropyrazolo[1,5-a]pyrimidine-3-carboxamide] was “+++ (Cisplatin sensitization value of <0.02 μM)”. The value for `Nc1nn2cc(F)cnc2c1C(=O)Nc1cnccc1N1CCN(S(=O)(=O)C2CC2)CC1` [I-N-176, 2-amino-N-(4-(4-(cyclopropylsulfonyl)piperazin-1-yl)pyridin-3-yl)-6-fluoropyrazolo[1,5-a]pyrimidine-3-carboxamide] was “+++ (Cisplatin sensitization value of <0.02 μM)”.

In the case of `CC(C)(C#N)c1cnc2c(C(=O)Nc3cnccc3N3CCN(C4COC4)CC3)c(N)nn2c1` [I-N-142, 2-amino-6-(2-cyanopropan-2-yl)-N-(4-(4-(oxetan-3-yl)piperazin-1-yl)pyridin-3-yl)pyrazolo[1,5-a]pyrimidine-3-carboxamide], the “Cisplatin Sensitization Assay” value is “++ (Cisplatin sensitization value>0.02 μM but <0.2 μM)”.

As to `Nc1nn2cc(F)cnc2c1C(=O)Nc1cncc(F)c1N1CCC(C(=O)N2CC[C@H](N3CCCC3)C2)CC1` [I-G-58, (S)—N-(4-(4-([1,3′-bipyrrolidine]-1′-carbonyl)piperidin-1-yl)-5-fluoropyridin-3-yl)-2-amino-6-fluoropyrazolo[1,5-a]pyrimidine-3-carboxamide], the “Cisplatin Sensitization Assay” value is listed as “+++ (Cisplatin sensitization value of <0.02 μM)”. As for `Cn1ccnc1-c1ccncc1NC(=O)c1c(N)nn2cc(F)cnc12` [I-C-55, 2-amino-6-fluoro-N-(4-(1-methyl-1H-imidazol-2-yl)pyridin-3-yl)pyrazolo[1,5-a]pyrimidine-3-carboxamide], the “Cisplatin Sensitization Assay” value is on record as “+ (Cisplatin sensitization value>0.2 μM but <5 μM)”. On to `Nc1nn2cc(F)cnc2c1C(=O)Nc1cnccc1N1CCC(S(=O)(=O)N2CCN3CCC2CC3)CC1` [I-N-196, N-(4-(4-(1,4-diazabicyclo[3.2.2]nonan-4-ylsulfonyl)piperidin-1-yl)pyridin-3-yl)-2-amino-6-fluoropyrazolo[1,5-a]pyrimidine-3-carboxamide], for which the “Cisplatin Sensitization Assay” value is reported as “+++ (Cisplatin sensitization value of <0.02 μM)”. Under `Nc1nn2cc(F)cnc2c1C(=O)Nc1cncc(Cl)c1N1CCC(C(=O)N2CCN3CCC2C3)CC1` (stereo not shown) [I-G-69, N-(4-(4-(1,4-diazabicyclo[3.2.1]octane-4-carbonyl)piperidin-1-yl)-5-chloropyridin-3-yl)-2-amino-6-fluoropyrazolo[1,5-a]pyrimidine-3-carboxamide] stands “+++ (Cisplatin sensitization value of <0.02 μM)”.

On to `Cc1ccn(-c2ccncc2NC(=O)c2c(N)nn3cc(F)cnc23)n1` [I-N-225, 2-amino-6-fluoro-N-(4-(3-methyl-1H-pyrazol-1-yl)pyridin-3-yl)pyrazolo[1,5-a]pyrimidine-3-carboxamide], for which the “Cisplatin Sensitization Assay” value is given as “++ (Cisplatin sensitization value>0.02 μM but <0.2 μM)”. As for `Nc1nn2cc(F)cnc2c1C(=O)Nc1cnccc1N1CCN(C2CCOC2)CC1` (racemic) [I-N-19, (R,S)-2-amino-6-fluoro-N-(4-(4-(tetrahydrofuran-3-yl)piperazin-1-yl)pyridin-3-yl)pyrazolo[1,5-a]pyrimidine-3-carboxamide], the “Cisplatin Sensitization Assay” value is listed as “+++ (Cisplatin sensitization value of <0.02 μM)”. With `Nc1nn2cc(Cl)cnc2c1C(=O)Nc1cnccc1O[C@H]1CCCNC1` [I-O-74, (S)-2-amino-6-chloro-N-(4-(piperidin-3-yloxy)pyridin-3-yl)pyrazolo[1,5-a]pyrimidine-3-carboxamide], the “Cisplatin Sensitization Assay” value was “++ (Cisplatin sensitization value>0.02 μM but <0.2 μM)”.

Consider `CN(C)C1CN(C(=O)C2CCN(c3c(F)cncc3NC(=O)c3c(N)nn4cc(F)cnc34)CC2)C1` [I-G-22, 2-amino-N-(4-(4-(3-(dimethylamino)azetidine-1-carbonyl)piperidin-1-yl)-5-fluoropyridin-3-yl)-6-fluoropyrazolo[1,5-a]pyrimidine-3-carboxamide], for which the “Cisplatin Sensitization Assay” value is “+++ (Cisplatin sensitization value of <0.02 μM)”. For the compound `Nc1nn2cc(F)cnc2c1C(=O)Nc1cncc(F)c1N1CCC(C(=O)N2CCNCC2)CC1` [I-G-12, 2-amino-6-fluoro-N-(5-fluoro-4-(4-(piperazine-1-carbonyl)piperidin-1-yl)pyridin-3-yl)pyrazolo[1,5-a]pyrimidine-3-carboxamide], the “Cisplatin Sensitization Assay” value is “+++ (Cisplatin sensitization value of <0.02 μM)”. Under `Nc1nn2cc(F)cnc2c1C(=O)Nc1cncc(F)c1N1CCC(C(=O)N2CCC(N3CCC3)CC2)CC1` [I-G-68, 2-amino-N-(4-(4-(4-(azetidin-1-yl)piperidine-1-carbonyl)piperidin-1-yl)-5-fluoropyridin-3-yl)-6-fluoropyrazolo[1,5-a]pyrimidine-3-carboxamide] stands “+++ (Cisplatin sensitization value of <0.02 μM)”; under `Nc1nn2cc(F)cnc2c1C(=O)Nc1cnccc1O[C@@H]1CN2CCC1CC2` [Compound I-0-10, (S)-2-amino-6-fluoro-N-(4-(quinuclidin-3-yloxy)pyridin-3-yl)pyrazolo[1,5-a]pyrimidine-3-carboxamide], “+++ (Cisplatin sensitization value of <0.02 μM)”; under `Nc1nn2cc(F)cnc2c1C(=O)Nc1cncc(F)c1N1CCC(C(=O)N2CC(F)C2)CC1` [I-G-67, 2-amino-6-fluoro-N-(5-fluoro-4-(4-(3-fluoroazetidine-1-carbonyl)piperidin-1-yl)pyridin-3-yl)pyrazolo[1,5-a]pyrimidine-3-carboxamide], “+++ (Cisplatin sensitization value of <0.02 μM)”. Take `CCOc1ccncc1NC(=O)c1c(N)nn2cc(F)cnc12` [I-O-14, 2-amino-N-(4-ethoxypyridin-3-yl)-6-fluoropyrazolo[1,5-a]pyrimidine-3-carboxamide]: the “Cisplatin Sensitization Assay” value is given as “+++ (Cisplatin sensitization value of <0.02 μM)”.

As to `Nc1nn2cc(Cl)cnc2c1C(=O)Nc1cnccc1N1CCN(C2COC2)CC1` [I-N-58, 2-amino-6-chloro-N-(4-(4-(oxetan-3-yl)piperazin-1-yl)pyridin-3-yl)pyrazolo[1,5-a]pyrimidine-3-carboxamide], the “Cisplatin Sensitization Assay” value is recorded as “++ (Cisplatin sensitization value>0.02 μM but <0.2 μM)”. Regarding `Nc1nn2cc(F)cnc2c1C(=O)Nc1cncc(F)c1N1CCN(CC(=O)N2CCC2)CC1` [I-N-228, 2-amino-N-(4-(4-(2-(azetidin-1-yl)-2-oxoethyl)piperazin-1-yl)-5-fluoropyridin-3-yl)-6-fluoropyrazolo[1,5-a]pyrimidine-3-carboxamide], the “Cisplatin Sensitization Assay” value was “+++ (Cisplatin sensitization value of <0.02 μM)”. The value for `CN1CCOC2(CCN(c3ccncc3NC(=O)c3c(N)nn4cc(F)cnc34)CC2)C1` [I-N-183, 2-amino-6-fluoro-N-(4-(4-methyl-1-oxa-4,9-diazaspiro[5.5]undecan-9-yl)pyridin-3-yl)pyrazolo[1,5-a]pyrimidine-3-carboxamide] was “+++ (Cisplatin sensitization value of <0.02 μM)”; that for `Nc1nn2cc(Cl)cnc2c1C(=O)Nc1cnccc1N1CCN(C2CCC2)CC1` [I-N-48, 2-amino-6-chloro-N-(4-(4-cyclobutylpiperazin-1-yl)pyridin-3-yl)pyrazolo[1,5-a]pyrimidine-3-carboxamide] was “++ (Cisplatin sensitization value>0.02 μM but <0.2 μM)”.
